Reference: paper doi:10.1101/2024.08.13.607785v1 (biorxiv, 2024)
Where two headings read alike, the source gives them in different places. Blank lines part the entries; values can stand above or below the molecule they belong to.

Assays:
Assay in all cases: biochemical
Parameters in all cases: species or system human cell line lysate
[1] = target: MAP/microtubule affinity-regulating kinase 4 ; MARK4 ; Q96L34 (Homo sapiens, UniProt Q96L34)
[2] = target: Mitogen-activated protein kinase kinase kinase 9 ; MAP3K9 ; P80192 (Homo sapiens, UniProt P80192)
Sequence of Mitogen-activated protein kinase kinase kinase 9 ; MAP3K9 ; P80192 (P80192 whole entry, the tested form may be a part, canonical isoform): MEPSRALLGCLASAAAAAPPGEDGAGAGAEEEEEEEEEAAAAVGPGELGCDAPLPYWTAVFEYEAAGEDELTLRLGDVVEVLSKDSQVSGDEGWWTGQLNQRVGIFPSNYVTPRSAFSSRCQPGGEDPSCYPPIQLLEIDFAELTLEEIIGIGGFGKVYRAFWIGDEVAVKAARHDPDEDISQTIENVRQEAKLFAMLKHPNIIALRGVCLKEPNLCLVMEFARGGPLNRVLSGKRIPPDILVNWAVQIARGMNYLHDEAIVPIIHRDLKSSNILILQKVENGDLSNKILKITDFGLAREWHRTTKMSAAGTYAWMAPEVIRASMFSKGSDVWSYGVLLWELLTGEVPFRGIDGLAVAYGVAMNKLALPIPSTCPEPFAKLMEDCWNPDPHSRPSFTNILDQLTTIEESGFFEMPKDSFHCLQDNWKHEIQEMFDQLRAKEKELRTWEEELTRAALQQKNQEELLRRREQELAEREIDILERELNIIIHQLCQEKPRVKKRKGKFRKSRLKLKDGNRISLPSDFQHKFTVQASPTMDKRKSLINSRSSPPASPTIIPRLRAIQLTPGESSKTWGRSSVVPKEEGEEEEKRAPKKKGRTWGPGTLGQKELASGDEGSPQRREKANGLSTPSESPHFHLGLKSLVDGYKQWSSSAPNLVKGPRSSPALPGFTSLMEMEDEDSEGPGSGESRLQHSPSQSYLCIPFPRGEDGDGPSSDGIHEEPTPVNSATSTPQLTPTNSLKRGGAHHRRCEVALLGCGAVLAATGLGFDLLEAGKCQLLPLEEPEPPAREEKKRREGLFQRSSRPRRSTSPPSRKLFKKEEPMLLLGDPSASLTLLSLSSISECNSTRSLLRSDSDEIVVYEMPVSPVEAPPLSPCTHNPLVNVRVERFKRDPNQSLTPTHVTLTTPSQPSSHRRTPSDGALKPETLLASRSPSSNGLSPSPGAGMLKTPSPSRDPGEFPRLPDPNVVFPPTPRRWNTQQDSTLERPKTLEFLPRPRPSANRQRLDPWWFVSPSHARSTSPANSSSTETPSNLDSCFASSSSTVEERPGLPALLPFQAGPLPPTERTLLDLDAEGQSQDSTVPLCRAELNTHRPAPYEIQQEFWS

[3] = target: Isoform 4 of LIM domain kinase 1 ; LIMK1 ; P53667-4 (Homo sapiens, UniProt P53667)
[4] = target: Dual specificity tyrosine-phosphorylation-regulated kinase 1A ; DYRK1A ; Q13627 (Homo sapiens, UniProt Q13627)
[5] = target: Serine/threonine-protein kinase haspin ; HASPIN ; Q8TF76 (Homo sapiens, UniProt Q8TF76)
Sequence of Serine/threonine-protein kinase haspin ; HASPIN ; Q8TF76 (Q8TF76 whole entry, one chain of several): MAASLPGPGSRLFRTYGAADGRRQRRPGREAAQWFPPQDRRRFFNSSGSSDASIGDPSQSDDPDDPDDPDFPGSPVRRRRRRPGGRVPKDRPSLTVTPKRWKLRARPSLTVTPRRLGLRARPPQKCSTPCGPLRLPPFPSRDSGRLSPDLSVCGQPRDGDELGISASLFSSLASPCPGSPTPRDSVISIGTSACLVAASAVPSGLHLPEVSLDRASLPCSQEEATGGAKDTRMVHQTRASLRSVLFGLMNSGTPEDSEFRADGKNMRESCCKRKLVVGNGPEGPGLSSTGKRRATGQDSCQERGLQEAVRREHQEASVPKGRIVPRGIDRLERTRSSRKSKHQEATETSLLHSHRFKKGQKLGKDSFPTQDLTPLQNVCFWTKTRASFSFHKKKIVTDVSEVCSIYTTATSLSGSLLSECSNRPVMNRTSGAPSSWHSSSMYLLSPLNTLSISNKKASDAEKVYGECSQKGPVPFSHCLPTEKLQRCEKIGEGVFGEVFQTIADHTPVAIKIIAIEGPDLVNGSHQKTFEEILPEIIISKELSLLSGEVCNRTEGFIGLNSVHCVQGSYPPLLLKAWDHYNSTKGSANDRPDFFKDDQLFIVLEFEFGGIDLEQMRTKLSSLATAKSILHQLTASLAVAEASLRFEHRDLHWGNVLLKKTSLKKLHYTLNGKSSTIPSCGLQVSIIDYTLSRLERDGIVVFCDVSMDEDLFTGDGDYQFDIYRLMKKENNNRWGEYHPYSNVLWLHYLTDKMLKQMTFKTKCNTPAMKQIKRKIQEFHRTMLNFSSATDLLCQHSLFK

[6] = target: Rho-associated protein kinase 2 ; ROCK2 ; O75116 (Homo sapiens, UniProt O75116)
[7] = target: Mitogen-activated protein kinase 10 ; MAPK10 ; P53779 (Homo sapiens, UniProt P53779)
Sequence of Mitogen-activated protein kinase 10 ; MAPK10 ; P53779 (P53779 whole entry): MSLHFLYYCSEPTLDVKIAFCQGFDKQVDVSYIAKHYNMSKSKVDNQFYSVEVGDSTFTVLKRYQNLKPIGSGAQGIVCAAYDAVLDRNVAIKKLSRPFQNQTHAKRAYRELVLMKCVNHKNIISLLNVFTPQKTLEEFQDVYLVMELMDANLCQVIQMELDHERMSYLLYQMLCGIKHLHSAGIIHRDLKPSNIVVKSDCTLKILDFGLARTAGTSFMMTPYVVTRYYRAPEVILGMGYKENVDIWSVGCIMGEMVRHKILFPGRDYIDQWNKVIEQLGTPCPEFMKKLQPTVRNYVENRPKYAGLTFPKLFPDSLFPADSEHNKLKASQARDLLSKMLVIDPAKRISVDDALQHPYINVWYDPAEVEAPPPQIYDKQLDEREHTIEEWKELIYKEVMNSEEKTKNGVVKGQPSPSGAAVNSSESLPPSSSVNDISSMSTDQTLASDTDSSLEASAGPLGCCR

[8] = target: Mitogen-activated protein kinase kinase kinase kinase 3 ; MAP4K3 ; Q8IVH8 (Homo sapiens, UniProt Q8IVH8)
Sequence of Mitogen-activated protein kinase kinase kinase kinase 3 ; MAP4K3 ; Q8IVH8 (Q8IVH8 whole entry, canonical isoform): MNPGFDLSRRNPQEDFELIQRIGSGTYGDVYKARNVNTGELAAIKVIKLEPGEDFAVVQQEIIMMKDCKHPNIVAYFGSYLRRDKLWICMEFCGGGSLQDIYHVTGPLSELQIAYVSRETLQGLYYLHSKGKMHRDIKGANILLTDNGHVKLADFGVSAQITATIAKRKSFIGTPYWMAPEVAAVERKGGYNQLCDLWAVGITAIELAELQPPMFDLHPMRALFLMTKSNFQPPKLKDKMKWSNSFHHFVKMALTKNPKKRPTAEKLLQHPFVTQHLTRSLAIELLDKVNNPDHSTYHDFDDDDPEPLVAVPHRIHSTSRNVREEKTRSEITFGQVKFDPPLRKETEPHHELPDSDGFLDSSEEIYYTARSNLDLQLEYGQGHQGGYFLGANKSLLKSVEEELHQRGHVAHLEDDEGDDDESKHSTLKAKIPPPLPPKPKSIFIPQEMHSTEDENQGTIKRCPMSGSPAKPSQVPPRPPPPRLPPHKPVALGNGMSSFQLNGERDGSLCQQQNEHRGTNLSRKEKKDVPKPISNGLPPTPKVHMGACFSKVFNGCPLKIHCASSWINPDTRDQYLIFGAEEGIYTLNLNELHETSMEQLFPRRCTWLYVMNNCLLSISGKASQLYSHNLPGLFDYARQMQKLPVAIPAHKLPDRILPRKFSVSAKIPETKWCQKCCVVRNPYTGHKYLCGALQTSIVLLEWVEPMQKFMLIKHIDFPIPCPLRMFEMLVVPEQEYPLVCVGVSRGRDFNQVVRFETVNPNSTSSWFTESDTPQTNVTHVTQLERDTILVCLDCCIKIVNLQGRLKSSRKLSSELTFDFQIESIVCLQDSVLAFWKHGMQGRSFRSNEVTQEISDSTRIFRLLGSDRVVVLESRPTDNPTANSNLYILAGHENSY

[9] = target: Isoform 5 of Aurora kinase B ; AURKB ; Q96GD4-5 (Homo sapiens, UniProt Q96GD4)
[10] = target: T1, Ephrin type-B receptor 2 ; EPHB2 ; P29323 (Homo sapiens, UniProt P29323)
T1 sequence (P29323 1-1055): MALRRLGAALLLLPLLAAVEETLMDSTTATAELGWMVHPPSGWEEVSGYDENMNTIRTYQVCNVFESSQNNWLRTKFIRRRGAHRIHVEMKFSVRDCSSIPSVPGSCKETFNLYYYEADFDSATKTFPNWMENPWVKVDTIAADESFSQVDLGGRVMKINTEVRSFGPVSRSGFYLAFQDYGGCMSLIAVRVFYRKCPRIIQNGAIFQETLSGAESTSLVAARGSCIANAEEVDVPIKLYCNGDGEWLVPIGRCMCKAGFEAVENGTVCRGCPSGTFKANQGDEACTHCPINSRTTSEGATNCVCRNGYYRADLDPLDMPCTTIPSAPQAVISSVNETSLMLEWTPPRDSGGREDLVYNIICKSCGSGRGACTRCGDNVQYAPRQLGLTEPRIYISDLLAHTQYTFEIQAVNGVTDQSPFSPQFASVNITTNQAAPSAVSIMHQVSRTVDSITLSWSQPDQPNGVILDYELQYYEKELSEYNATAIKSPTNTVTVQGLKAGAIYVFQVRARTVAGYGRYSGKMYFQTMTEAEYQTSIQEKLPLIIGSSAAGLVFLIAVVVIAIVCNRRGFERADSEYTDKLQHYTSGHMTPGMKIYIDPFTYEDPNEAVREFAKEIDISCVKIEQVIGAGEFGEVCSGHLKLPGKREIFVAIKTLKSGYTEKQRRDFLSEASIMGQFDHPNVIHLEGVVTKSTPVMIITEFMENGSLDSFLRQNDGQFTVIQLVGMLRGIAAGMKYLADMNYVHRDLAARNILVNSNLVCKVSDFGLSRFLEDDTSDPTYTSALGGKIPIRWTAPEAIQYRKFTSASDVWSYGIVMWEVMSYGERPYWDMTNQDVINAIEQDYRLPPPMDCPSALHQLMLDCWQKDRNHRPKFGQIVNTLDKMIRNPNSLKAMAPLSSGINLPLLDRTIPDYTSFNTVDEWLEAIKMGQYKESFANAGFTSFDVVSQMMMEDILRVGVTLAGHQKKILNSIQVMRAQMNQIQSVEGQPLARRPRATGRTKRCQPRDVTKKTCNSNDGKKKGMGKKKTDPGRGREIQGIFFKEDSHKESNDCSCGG

[11] = target: Serine/threonine-protein kinase 3 ; STK3 ; Q13188 (Homo sapiens, UniProt Q13188)
[12] = target: Isoform 2 of Mitogen-activated protein kinase kinase kinase 20 ; MAP3K20 ; Q9NYL2-2 (Homo sapiens, UniProt Q9NYL2)
Sequence of Isoform 2 of Mitogen-activated protein kinase kinase kinase 20 ; MAP3K20 ; Q9NYL2-2 (Q9NYL2 whole entry, canonical isoform): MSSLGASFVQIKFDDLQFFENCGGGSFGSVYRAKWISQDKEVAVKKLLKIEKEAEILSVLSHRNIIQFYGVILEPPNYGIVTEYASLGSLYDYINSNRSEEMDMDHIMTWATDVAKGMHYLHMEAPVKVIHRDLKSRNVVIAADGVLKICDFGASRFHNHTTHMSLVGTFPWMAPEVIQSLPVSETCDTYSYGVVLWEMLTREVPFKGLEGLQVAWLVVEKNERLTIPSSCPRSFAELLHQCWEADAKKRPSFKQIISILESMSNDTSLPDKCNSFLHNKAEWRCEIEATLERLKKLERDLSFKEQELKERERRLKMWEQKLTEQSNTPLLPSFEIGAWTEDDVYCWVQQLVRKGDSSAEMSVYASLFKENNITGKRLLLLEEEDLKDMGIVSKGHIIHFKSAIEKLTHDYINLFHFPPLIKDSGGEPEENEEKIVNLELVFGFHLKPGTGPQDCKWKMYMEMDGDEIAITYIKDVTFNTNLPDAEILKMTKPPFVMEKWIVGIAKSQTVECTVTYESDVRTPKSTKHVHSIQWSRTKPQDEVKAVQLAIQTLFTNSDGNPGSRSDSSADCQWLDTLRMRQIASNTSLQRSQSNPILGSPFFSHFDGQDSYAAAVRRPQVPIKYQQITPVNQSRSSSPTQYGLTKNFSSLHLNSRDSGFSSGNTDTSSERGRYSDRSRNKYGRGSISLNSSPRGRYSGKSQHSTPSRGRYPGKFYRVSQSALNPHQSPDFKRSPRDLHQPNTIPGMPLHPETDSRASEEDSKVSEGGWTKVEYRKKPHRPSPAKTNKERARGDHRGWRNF

[13] = target: Serine/threonine-protein kinase N3 ; PKN3 ; Q6P5Z2 (Homo sapiens, UniProt Q6P5Z2)
[14] = target: Isoform IB of Tyrosine-protein kinase ABL1 ; ABL1 ; P00519-2 (Homo sapiens, UniProt P00519)
[15] = target: Kinase suppressor of Ras 1 ; KSR1 ; Q8IVT5 (Homo sapiens, UniProt Q8IVT5)
Sequence of Kinase suppressor of Ras 1 ; KSR1 ; Q8IVT5 (Q8IVT5 whole entry): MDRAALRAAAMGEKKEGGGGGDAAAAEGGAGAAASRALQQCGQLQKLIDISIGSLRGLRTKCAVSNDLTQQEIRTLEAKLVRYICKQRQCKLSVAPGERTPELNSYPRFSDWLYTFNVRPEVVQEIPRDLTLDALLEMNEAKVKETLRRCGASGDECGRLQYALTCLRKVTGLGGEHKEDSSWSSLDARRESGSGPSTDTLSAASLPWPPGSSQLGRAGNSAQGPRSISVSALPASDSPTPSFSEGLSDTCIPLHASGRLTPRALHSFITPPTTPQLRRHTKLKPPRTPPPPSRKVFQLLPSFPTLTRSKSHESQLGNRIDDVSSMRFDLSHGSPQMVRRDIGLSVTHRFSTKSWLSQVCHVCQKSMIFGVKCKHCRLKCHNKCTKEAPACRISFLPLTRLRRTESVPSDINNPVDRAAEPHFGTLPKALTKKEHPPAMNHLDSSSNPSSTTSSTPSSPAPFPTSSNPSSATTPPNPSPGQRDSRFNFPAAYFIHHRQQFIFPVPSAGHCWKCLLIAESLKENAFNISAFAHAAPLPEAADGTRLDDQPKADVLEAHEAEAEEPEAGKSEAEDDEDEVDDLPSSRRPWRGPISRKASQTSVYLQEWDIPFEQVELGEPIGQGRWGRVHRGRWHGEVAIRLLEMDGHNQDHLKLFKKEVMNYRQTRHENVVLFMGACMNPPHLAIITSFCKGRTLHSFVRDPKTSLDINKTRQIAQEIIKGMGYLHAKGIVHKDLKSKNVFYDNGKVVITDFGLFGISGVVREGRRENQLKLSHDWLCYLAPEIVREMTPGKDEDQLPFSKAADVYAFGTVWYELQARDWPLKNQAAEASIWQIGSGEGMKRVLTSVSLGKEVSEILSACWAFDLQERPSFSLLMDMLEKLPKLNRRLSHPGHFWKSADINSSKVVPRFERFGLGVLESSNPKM

[16] = target: Serine-protein kinase ATM ; ATM ; Q13315 (Homo sapiens, UniProt Q13315)
[17] = read-out: BAY-1251152 (10 µM) / %Intensity relative to DMSO
[18] = read-out: BAY-1143572 (10 µM) / %Intensity relative to DMSO

- remaining activity at 10 µM [1, 17]: 105%
- remaining activity at 10 µM [2, 17]: 104%
- remaining activity at 10 µM [3, 17]: 106%
- remaining activity at 10 µM [4, 17]: 60.2%
- remaining activity at 10 µM [5, 17]: 68.5%
- remaining activity at 10 µM [6, 17]: 110%
- remaining activity at 10 µM [7, 17]: 108%
- remaining activity at 10 µM [8, 17]: 106%
- remaining activity at 10 µM [9, 17]: 65%
- remaining activity at 10 µM [10, 17]: 105%
- remaining activity at 10 µM [11, 17]: 91.9%
- remaining activity at 10 µM [12, 17]: 81.6%
- remaining activity at 10 µM [13, 17]: 114%
- remaining activity at 10 µM [14, 17]: 83.2%
- remaining activity at 10 µM [15, 17]: 146%
- remaining activity at 10 µM [16, 17]: 115%
SMILES: COc1cc(F)ccc1-c1cc(Nc2cc(CS(C)(=N)=O)ccn2)ncc1F (centres unmarked) [BAY-1251152]

- remaining activity at 10 µM [1, 18]: 110%
- remaining activity at 10 µM [2, 18]: 87.2%
- remaining activity at 10 µM [3, 18]: 79%
- remaining activity at 10 µM [4, 18]: 76.3%
- remaining activity at 10 µM [5, 18]: 75.8%
- remaining activity at 10 µM [6, 18]: 120%
- remaining activity at 10 µM [7, 18]: 119%
- remaining activity at 10 µM [8, 18]: 109%
- remaining activity at 10 µM [9, 18]: 101%
- remaining activity at 10 µM [10, 18]: 84.3%
- remaining activity at 10 µM [11, 18]: 103%
- remaining activity at 10 µM [12, 18]: 65.2%
- remaining activity at 10 µM [13, 18]: 121%
- remaining activity at 10 µM [14, 18]: 67.4%
- remaining activity at 10 µM [15, 18]: 131%
- remaining activity at 10 µM [16, 18]: 110%
SMILES: COc1cc(F)ccc1-c1ncnc(Nc2cccc(C[S@](C)(=N)=O)c2)n1 [BAY-1143572]
